Results reported in BindingDB's records for doi:10.7270/Q28G8J4C (Broad Institute, 2009).

Target: T1, POsterior Segregation (Caenorhabditis elegans, UniProt G5EF15)
T1 sequence (G5EF15 whole entry): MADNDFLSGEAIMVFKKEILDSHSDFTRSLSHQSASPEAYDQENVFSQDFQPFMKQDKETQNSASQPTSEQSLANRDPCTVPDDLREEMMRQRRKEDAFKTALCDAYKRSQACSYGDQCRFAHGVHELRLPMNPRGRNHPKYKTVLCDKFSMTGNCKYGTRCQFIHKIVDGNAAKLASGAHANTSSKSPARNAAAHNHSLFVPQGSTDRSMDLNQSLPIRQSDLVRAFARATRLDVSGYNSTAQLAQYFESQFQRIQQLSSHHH
Assay: disruptors of C. elegans POS-1 RNA interaction – biochemical, fluorescence polarization, dose response (AID 1964)

Q: Which EC50 does the source give for `CC(=O)Nc1ccc(N=CCC(=O)c2ccc(C)o2)cc1` [MLS000089004] here?
A: Its EC50 is over 300 µM.

Q: `O=C1c2cccc3cccc(c23)C(=O)C1[N+](=O)[O-]` [2-nitro-3-oxidanyl-phenalen-1-one] was tested. Which EC50 did it give?
A: The EC50 was 12.6 µM.

Q: Which EC50 does the source give for `O=CC(C=Nc1ccccn1)c1nc2ccccc2o1` (stereo not given) [2-Benzooxazol-2-yl-3-(pyridin-2-ylamino)-propenal] here?
A: Its EC50 is over 300 µM.

Q: Which EC50 does the source give for `COc1ccccc1-n1c(O)c2n(-c3ccc(C)cc3)[nH]c(C(=O)c3ccccc3)c-2c1=O` here?
A: The EC50 was 13.7 µM.

Q: With `COc1ccc(C2CC(c3ccc(Br)s3)=Nc3ncnn32)cc1OC` (stereo not given) [SMR000032927] as the compound, how does the EC50 read?
A: Its EC50 is 7.82 µM.

Q: `COc1cc(OC)c(C2C3=C(CC(C)CC3=O)OC(=N)C2C#N)cc1OC` (stereo not given) [2-amino-4-asaryl-5-keto-7-methyl-4,6,7,8-tetrahydrochromene-3-carbonitrile] was tested. Which EC50 did it give?
A: Its EC50 is over 300 µM.

Q: With `COc1ccc(C2CC(=O)C(=CNCCCO)C(=O)C2)cc1` (stereo not given) [2-[(3-hydroxypropylamino)methylidene]-5-(4-methoxyphenyl)cyclohexane-1,3-dione] as the compound, how does the EC50 read?
A: Its EC50 is 34.8 µM.

Q: With `CCN(CC)CCNC=C1C(=O)NC(=O)N(CCc2ccccc2)C1=O` [(5E)-5-[[2-(diethylamino)ethylamino]methylene]-1-phenethyl-barbituric acid] as the compound, how does the EC50 read?
A: The EC50 was over 300 µM.

Q: Which EC50 does the source give for `Oc1c(Br)cc(Br)c(C=Nn2c(-c3ccccc3)n[nH]c2=S)c1Br` [2,4,6-Tribromo-3-[(3-mercapto-5-phenyl-[1,2,4]triazol-4-ylimino)-methyl]-phenol] here?
A: Its EC50 is 8.49 µM.

Q: With `Cc1cc(-c2ccccc2)nc(N=NCc2ccc(O)cc2O)n1` [SMR000513422] as the compound, how does the EC50 read?
A: The EC50 was over 300 µM.

Q: With `Cc1cccc(Nc2nc(O)cs2)c1` [2-(3-methylanilino)-1,3-thiazol-4-one] as the compound, how does the EC50 read?
A: The EC50 was over 300 µM.

Q: `Oc1ccc(CN=Nc2ccc(Cl)nn2)c(O)c1O` was tested. Which EC50 did it give?
A: The EC50 was 50 µM.

Q: `O=C(Cc1nc2ccccc2n(-c2ccccc2)c1=O)c1ccccc1` [(3Z)-3-phenacylidene-1-phenyl-4H-quinoxalin-2-one] was tested. Which EC50 did it give?
A: Its EC50 is 78.2 µM.

Q: How did the EC50 turn out when `CC1=C(C#N)C(=O)N(C)C(=O)C1=CNNc1ccc(C)c(C)c1` [MLS000698328] was run?
A: Its EC50 is over 300 µM.

Q: How did the EC50 turn out when `COc1ccc(C2C(C(=O)c3ccco3)C(=O)C(=O)N2c2nnc(C)s2)cc1OC` (stereo not given) [2-(3,4-dimethoxyphenyl)-3-(furan-2-carbonyl)-4-hydroxy-1-(5-methyl-1,3,4-thiadiazol-2-yl)-2H-pyrrol-5-one] was run?
A: Its EC50 is over 300 µM.

Q: For `COc1cc(CN=Nc2ccc([N+](=O)[O-])cc2)ccc1OCC(=O)Nc1ccc(C)c(C)c1` [MLS000537060], which EC50 is on record?
A: Its EC50 is over 300 µM.

Q: `COc1ccc(N2C(=O)C(=Nc3ccccc3O)C(Cl)C2=O)cc1` (stereo not given) [3-Chloro-4-(2-hydroxy-phenylamino)-1-(4-methoxy-phenyl)-pyrrole-2,5-dione] was tested. Which EC50 did it give?
A: Its EC50 is over 300 µM.

Q: How did the EC50 turn out when `CCOc1ccc(N=C(C(=C(Cl)C(Cl)Cl)[N+](=O)[O-])n2cncn2)cc1` [MLS000519210] was run?
A: The EC50 was 46.9 µM.

Q: With `Cc1nnc(N2C(=O)C(=O)C(C(=O)c3ccco3)C2c2ccc(C(C)(C)C)cc2)s1` (stereo not given) [2-(4-tert-butylphenyl)-3-(furan-2-carbonyl)-4-hydroxy-1-(5-methyl-1,3,4-thiadiazol-2-yl)-2H-pyrrol-5-one] as the compound, how does the EC50 read?
A: The EC50 was 24.9 µM.

Q: `COc1cccc(CN=Nc2ncnc(N)c2[N+](=O)[O-])c1OC` [(6-amino-5-nitro-pyrimidin-4-yl)-[(2,3-dimethoxybenzylidene)amino]amine] was tested. Which EC50 did it give?
A: Its EC50 is 18.4 µM.

Q: Which EC50 does the source give for `Fc1ccc(C2=Nc3ncnn3C(c3ccco3)C2)cc1` (stereo not given) [5-(4-fluorophenyl)-7-(2-furanyl)-1,7-dihydro-[1,2,4]triazolo[1,5-a]pyrimidine] here?
A: The EC50 was 14.7 µM.

Q: With `O=C1C=CC(/C=C/c2nc(O)c([N+](=O)[O-])c(=O)[nH]2)C=C1O` (stereo not given) [SMR000524347] as the compound, how does the EC50 read?
A: The EC50 was 250 µM.

Q: How did the EC50 turn out when `COc1ccc(C2C(C(=O)c3cccs3)C(=O)C(=O)N2c2nncs2)cc1` (stereo not given) was run?
A: Its EC50 is 0.549 µM.

Q: Which EC50 does the source give for `Cc1ccc(N/N=C2/C(=O)Nc3ccc(F)cc32)cc1` [5-fluoro-3-[2-(4-methylphenyl)hydrazono]indolin-2-one] here?
A: Its EC50 is over 300 µM.

Q: `O=C(NN=Cc1c(O)n(-c2ccccc2)c(=S)[nH]c1=O)c1ccc(O)cc1` [N'-[(1Z)-(4,6-dioxo-1-phenyl-2-thioxohexahydropyrimidin-5-yl)methylene]-4-hydroxybenzohydrazide] was tested. Which EC50 did it give?
A: The EC50 was over 300 µM.

Q: How did the EC50 turn out when `Oc1ccc2ccccc2c1CN=Nc1nnc(-c2ncc[nH]2)c2ccccc12` [SMR000151639] was run?
A: The EC50 was 48.7 µM.

Q: For `COC1=CC([N+](=O)[O-])=CC(/C=N/NC(=O)CC#N)C1=O` (stereo not given), which EC50 is on record?
A: Its EC50 is over 300 µM.

Q: For `Cc1ccc(C(=O)C2C(=O)C(=O)N(Cc3ccco3)C2c2ccc(N(C)C)cc2)o1` (stereo not given) [2-[4-(dimethylamino)phenyl]-1-(2-furanylmethyl)-4-hydroxy-3-[(5-methyl-2-furanyl)-oxomethyl]-2H-pyrrol-5-one], which EC50 is on record?
A: The EC50 was over 300 µM.

Q: For `O=C1CC(=O)c2c(O)cc(O)c(O)c2C1=O` [4,5,7,8-tetrahydroxy-1,2-naphthoquinone], which EC50 is on record?
A: Its EC50 is 1.07 µM.

Q: How did the EC50 turn out when `COc1ccc(OC)c(N2C(=O)C(=Cc3ccco3)C(=O)NC2=S)c1` [MLS001197216] was run?
A: The EC50 was 10.4 µM.

Q: `O=C1C=C(NNC(=O)c2sc3ccccc3c2Cl)CCC1` [3-chloranyl-N-[(3-oxidanylidenecyclohexylidene)amino]-1-benzothiophene-2-carboxamide] was tested. Which EC50 did it give?
A: Its EC50 is 22 µM.

Q: `COc1ccc(N2C(=O)NC(=O)C(=Cc3c[nH]c4ccc(Br)cc34)C2=O)c(OC)c1` [(5E)-5-[(5-bromo-1H-indol-3-yl)methylene]-1-(2,4-dimethoxyphenyl)pyrimidine-2,4,6(1H,3H,5H)-trione] was tested. Which EC50 did it give?
A: Its EC50 is over 300 µM.

Q: How did the EC50 turn out when `O=C(CC(=O)c1ccccc1)C(=O)NNC(=O)c1ccccc1[N+](=O)[O-]` [2-Nitro-benzoic acid N'-(2-hydroxy-4-oxo-4-phenyl-but-2-enoyl)-hydrazide] was run?
A: The EC50 was 70 µM.

Q: How did the EC50 turn out when `Cc1ccc(NNC2=Nc3ccccc3C2=O)cc1` [2-[(4-methylphenyl)hydrazo]-3-indolone] was run?
A: The EC50 was 16 µM.

Q: How did the EC50 turn out when `Brc1ccc(C2=Nc3ncnn3C(c3ccco3)C2)cc1` (stereo not given) was run?
A: Its EC50 is over 300 µM.

Q: How did the EC50 turn out when `C=CCOc1ccc(C2C(C(=O)c3cccs3)C(=O)C(=O)N2c2nnc(C)s2)cc1` (stereo not given) [1-(5-methyl-1,3,4-thiadiazol-2-yl)-4-oxidanyl-2-(4-prop-2-enoxyphenyl)-3-thiophen-2-ylcarbonyl-2H-pyrrol-5-one] was run?
A: The EC50 was 10.8 µM.

Q: With `COc1cccc(C2C3CN(C)CCC3=C(C#N)C(=N)C2(C#N)C#N)c1OC` (stereo not given) [6-Amino-8-(2,3-dimethoxy-phenyl)-2-methyl-2,3,8,8a-tetrahydro-1H-isoquinoline-5,7,7-tricarbonitrile] as the compound, how does the EC50 read?
A: The EC50 was 2.18 µM.

Q: With `Nc1c(-c2nc3ccccc3[nH]2)c(O)cn1-c1ccc(CC(=O)O)cc1` [MLS000565528] as the compound, how does the EC50 read?
A: Its EC50 is 5.25 µM.

Q: For `CCOC(=O)C1=C(C)OC(=N)C(C#N)C1c1ccc(O)c(OC)c1` (stereo not given) [6-amino-5-cyano-4-(4-hydroxy-3-methoxyphenyl)-2-methyl-4H-pyran-3-carboxylic acid ethyl ester], which EC50 is on record?
A: The EC50 was over 300 µM.

Q: For `COc1ccc(C2C3=C(CCCC3=O)OC(=N)C2C#N)c(OC)c1OC` (stereo not given) [2-Amino-5-oxo-4-(2,3,4-trimethoxy-phenyl)-5,6,7,8-tetrahydro-4H-chromene-3-carbonitrile], which EC50 is on record?
A: Its EC50 is over 300 µM.

Q: For `CSc1ccc(C2C(C(=O)c3ccco3)C(=O)C(=O)N2c2nnc(SC)s2)cc1` (stereo not given) [3-(furan-2-carbonyl)-4-hydroxy-2-(4-methylsulfanylphenyl)-1-(5-methylsulfanyl-1,3,4-thiadiazol-2-yl)-2H-pyrrol-5-one], which EC50 is on record?
A: The EC50 was 6.79 µM.

Q: `C=CCOc1cccc(C2C(C(=O)c3cc4ccccc4o3)C(=O)C(=O)N2c2cc(C)on2)c1` (stereo not given) [3-(1-benzofuran-2-carbonyl)-4-hydroxy-1-(5-methyl-1,2-oxazol-3-yl)-2-(3-prop-2-enoxyphenyl)-2H-pyrrol-5-one] was tested. Which EC50 did it give?
A: Its EC50 is over 300 µM.

Q: With `CC1=C(C#N)C(=O)N(C)C(=O)C1=CN` [(5Z)-5-(aminomethylidene)-1,4-dimethyl-2,6-dioxopyridine-3-carbonitrile] as the compound, how does the EC50 read?
A: Its EC50 is over 300 µM.

Q: With `CC1(C)CC(=O)C2=C(C1)OC(=N)C(C#N)C2c1cccc(OC(=O)c2ccco2)c1` (stereo not given) [2-furancarboxylic acid [3-(2-amino-3-cyano-7,7-dimethyl-5-oxo-6,8-dihydro-4H-1-benzopyran-4-yl)phenyl] ester] as the compound, how does the EC50 read?
A: The EC50 was over 300 µM.

Q: For `O=C(O)c1ccc(NN=CC2=C(N3CCOCC3)C(=Cc3ccccc3)CC2)cc1` [4-[2-[[(3Z)-2-(4-morpholinyl)-3-(phenylmethylene)-1-cyclopentenyl]methylidene]hydrazinyl]benzoic acid], which EC50 is on record?
A: The EC50 was 176 µM.

Q: With `C/N=C1/S/C(=C\c2ccc(N3CCCC3)c(F)c2)C(=O)N1C` [(5Z)-5-(3-fluoro-4-pyrrolidino-benzylidene)-3-methyl-2-methylimino-thiazolidin-4-one] as the compound, how does the EC50 read?
A: The EC50 was 5.9 µM.

Q: With `COc1ccccc1N1C(=O)NC(=O)C(=Cc2c[nH]c3ccccc23)C1=O` [SMR000495900] as the compound, how does the EC50 read?
A: The EC50 was over 300 µM.

Q: Which EC50 does the source give for `CN1CCC2=C(C#N)C(=N)C(C#N)(C#N)C(c3ccncc3)C2C1` (stereo not given) [6-amino-2-methyl-8-(4-pyridyl)-1,3,8,8a-tetrahydroisoquinoline-5,7,7-tricarbonitrile] here?
A: Its EC50 is 52.9 µM.

Q: With `Cc1ccc2oc(=O)c(CC(=O)c3cccs3)nc2c1` [(3Z)-3-[2-keto-2-(2-thienyl)ethylidene]-6-methyl-4H-1,4-benzoxazin-2-one] as the compound, how does the EC50 read?
A: Its EC50 is 21.3 µM.

Q: `CC(N=Nc1ccc([N+](=O)[O-])cc1[N+](=O)[O-])c1cc2c(ccc3ccccc32)oc1=O` (stereo not given) [2-[1-[(2,4-dinitrophenyl)hydrazinylidene]ethyl]-3-benzo[f][1]benzopyranone] was tested. Which EC50 did it give?
A: The EC50 was over 300 µM.

Q: For `Cc1ccc(N=CCC(=O)c2sc(-c3ccccc3)nc2C)cc1` [(E)-1-(4-methyl-2-phenyl-1,3-thiazol-5-yl)-3-(4-toluidino)-2-propen-1-one], which EC50 is on record?
A: The EC50 was 46.4 µM.

Q: For `O=C(N[N-][CH+]c1cc([N+](=O)[O-])ccc1N1CCCC1)c1ccccn1` [MLS000684285], which EC50 is on record?
A: The EC50 was 149 µM.

Q: Which EC50 does the source give for `CC(C)(C)OC(=O)N1CCC2=C(C#N)C(=N)C(C#N)(C#N)[C@H](c3cccnc3)[C@H]2C1` [(8S,8aR)-6-amino-5,7,7-tricyano-8-(3-pyridinyl)-1,3,8,8a-tetrahydroisoquinoline-2-carboxylic acid tert-butyl ester] here?
A: The EC50 was 61.7 µM.

Q: `COc1cc(C2c3c(-c4cccnc4)n[nH]c3OC(=N)C2C#N)cc(Br)c1O` (stereo not given) was tested. Which EC50 did it give?
A: The EC50 was over 300 µM.

Q: For `COc1cc(OC)c(C2C3=C(CC(C)(C)CC3=O)OC(=N)C2C#N)cc1OC` (stereo not given) [SMR000054706], which EC50 is on record?
A: Its EC50 is over 300 µM.
